Test results as given in patent US11628179B2, “Compounds for treating and preventing extracellular histone mediated pathologies” (priority 2017, dated 2023).
Where a name gives a salt, the structure may show the parent alone.

Assays:
HMEC-1 = assay: Histone-induced calcium flux in endothelial cells; type: cell-based, human; conditions: mCBS 100 μg ml−1, histones 100 μg ml−1
Protocol: Calcium flux studies in endothelial cells. HMEC-1 (2×10^7 ml^−1) in RPMI-1640 medium were incubated with Indo-1 AM (5 μM)(ThermoFisher) at 37° C. for 60 min. […] The cell suspension was kept on ice and used within 3 h. Intracellular Ca^2+ flux was monitored using flow cytometry. The cells were pre-equilibrated and maintained at 37° C. during analysis using an external sheath connected to a heated water bath. After the exclusion of cellular debris and clumped cells (on the basis of FSC/SSC light scattering) the basal Ca^2+ level was monitored for 2 min before histone addition in the presence/absence of novel compounds. Ca^2+ levels were measured at 1, 4 and 10 min post-histone addition with a constant flow rate (˜300 events/sec). Ca^2+ flux was determined as an increase in the ratio of geometric mean fluorescence intensity (GMFI) of Ca^2+-bound over Ca^2+-unbound Indo-1.

Wistar rats = assay: Rat ischemia reperfusion tissue flap model; type: in vivo; conditions: 50 mg/kg i.p., 72 h
Excerpt: Rat ischemia reperfusion tissue flap model. The procedure employed is largely based on a previously described method (Askar, I., Oktay, M. F., Gurlek, A. & Bac, B. Protective effects of some antineoplastic agents on ischemia-reperfusion injury in epigastric island skin flaps. Microsurgery 26, 193-199, doi:10.1002/micr.20193 (2006)). Briefly, male Wistar rats were anaesthetised, locally depilated and a 3 cm by 6 cm fasciocutaneous flap was excised leaving the vascular pedicle intact. […] The clamp was removed […] post-application permitting returned blood flow to the flap. Test compounds (50 mg kg^−1) or saline were administered i.p. 5 min prior to clamp application and 5 min following its removal. The rats were monitored for a total experimental period of 72 h during which rats received additional compound or saline i.p. at 24 and 48 h post-op. The ‘Control No Clamp’ rats had the tissue flap excised and rubber placed underneath prior to re-suturing, however, the vessel was not clamped and they received saline at the same time points as the other rats. At the end of the experimental period the viability of the flaps was determined by the percentage of black necrotic or reddened areas vs pink viable areas. […]

Sprague Dawley rats = tested on: Sprague Dawley rats
Protocol: This study examined toxicity from repeat IV administration of mCBS in rats over 7 days with doses up to 1000 mg/kg.
The acute tolerability and toxicity of β-O-methyl cellobioside sulfate was assessed in Sprague Dawley rats following daily intravenous dose administration for a period of seven days. A total of four groups of n=3 adult female rats were treated with 0, 100, 300 and 1000 mg/kg doses of mCBS in the form of the sodium salt (mCBS.Na) in this repeated dose study. […] The rats were then observed for 7 days prior to termination with gross necropsy and terminal haematology and biochemistry analyses. An additional group of n=3 male rats were also treated at the highest dose of 1000 mg/kg according to the same study design.

C57BI/6 mice = assay: EAE model of multiple sclerosis; type: in vivo, mouse; conditions: 50 mg/kg i.p. daily day 0-9, 35 day window
Protocol: EAE Model of Multiple Sclerosis. EAE was induced in 8-12 week old C57BI/6 mice by subcutaneous immunisation with 115 μg/mouse myelin oligodendrocyte glycoprotein (MOG35-55 genscript) in Complete Freund's Adjuvant (Sigma) on day 1. 300 ng/mouse Pertussis toxin (List Biological Laboratories) in PBS was injected intra peritoneal (i.p.) on days 0 and 2. 50 mg/kg mCBS in PBS or PBS alone (vehicle) was given i.p. daily for day 0-9. Mice were monitored daily for signs of disease and were scored on a scale of 0-5 based on physical manifestations of disease. Mice were scored as follows: 0, clinically normal; 1, flaccid tail and/or ataxia; 2, hind limb weakness; 3, hind limb paralysis; 4, hind and front limb paralysis; and 5, moribund.

[1] = Pharmacokinetics, 5 hour intravenous infusion; type: in vivo, rat
Protocol: The pharmacokinetics (PK) of mCBS were studied following intravenous administration as an infusion over a 5 hours period to male Sprague Dawley rats. In this study the pharmacokinetics of the mCBS compound were investigated following intravenous infusion. The compound was formulated using Hartman's solution and administered to a group of n=3 rats at the rate of 25.3 mg/kg/h (total dose: 126.5 mg/kg; Group 1) and to a second group of n=3 rats at the rate of 50.6 mg/kg/h (total dose: 253 mg/kg; Group 2).
A total of six blood PK samples were collected from each rat at time points ranging from pre-dose to 5 hours after the start of the infusion. The resulting blood samples were processed to plasma, and subsequently analysed for the concentration of mCBS using an LC-MS/MS based method. Phoenix 64 WinNonlin® software was used to estimate area under the concentration versus time curve (AUC) values over the 0 to 5 h infusion interval. Values for concentration at steady state (Css) and clearance (Cl) were also estimated.

[2] = Stability of mCBS vs CBS in formulated clinical material (HPLC); type: physicochemical; conditions: formulated clinical material in phosphate buffer, 5±3° C., 25±2° C./60% RH, 40±2° C./75% RH
Protocol: Stability studies were carried out at 5±3° C., 25±2° C./60% RH and 40±2° C./75% RH ° C. conditions. Levels of both mCBS and cellobiose sulfate (CBS) were tracked in formulated clinical material (i.e. mCBS in phosphate buffer) via HPLC.

[3] = tested on: human microvascular endothelial cells (HMECs)
[4] = mCBS 100 μg/mL added prior to histones 400 μg/mL, 60 min

CO[C@@H]1O[C@H](COS(=O)(=O)O)[C@@H](O[C@@H]2O[C@H](COS(=O)(=O)O)[C@@H](OS(=O)(=O)O)[C@H](OS(=O)(=O)O)[C@H]2OS(=O)(=O)O)[C@H](OS(=O)(=O)O)[C@H]1OS(=O)(=O)O [mCBS, β-O-methyl cellobioside sulfate]
histone-induced Ca2+ flux (HMEC-1): substantially inhibited the response | viable area of the skin flap (Wistar rats): consistently and significantly increased the viable area of the skin flap | tolerability (Sprague Dawley rats; daily IV bolus 100, 300 and 1000 mg/kg for 7 days): well tolerated at all dose levels | MTD, as free base (Sprague Dawley rats; daily IV bolus for 7 days, corrected for purity and sodium content): 815 mg/kg | MTD (Sprague Dawley rats; daily IV bolus for 7 days, dose as sodium salt form): 1000 mg/kg | Hematology and biochemistry parameters (Sprague Dawley rats; daily IV bolus up to 1000 mg/kg for 7 days): unremarkable | protection from EAE development (C57BI/6 mice): substantial protection | Cl, mean (±SEM) ([1]; Group 1, 25.3 mg/kg/h): 0.601 (±0.081) l/h/kg | Css, mean (±SEM) ([1]; Group 1, 25.3 mg/kg/h): 58,400 (±6,920) ng/ml | AUC 0-5 h infusion interval, mean (±SEM) ([1]; Group 1, IV infusion 25.3 mg/kg/h for 5 h): 260,000 (±30,200) ng·h/mL | Cl, mean (±SEM) ([1]; Group 2, 50.6 mg/kg/h): 0.571 (±0.025) | Css, mean (±SEM) ([1]; Group 2, 50.6 mg/kg/h): 120,000 (±5,560) ng/ml | AUC 0-5 h infusion interval, mean (±SEM) ([1]; Group 2, IV infusion 50.6 mg/kg/h for 5 h): 532,000 (±25,500) ng·h/mL | time of infusion to reach steady state plasma level (Css) ([1]; IV infusion): 2 h | Css and AUC at 50 mg/kg/hr compared to 25 mg/kg/hr ([1]; IV infusion 5 h): 2 fold | APTT (coagulation test) ([1]; rats treated with the higher dose): higher APTT score compared to the reference range | level relative to starting amount (T=0) over time [2]: very stable | concentration that doubled the control clotting time (whole blood coagulation): 100 µg/mL | reduction in anticoagulant activity compared to LMWH, Enoxaparin (whole blood coagulation): 110 fold | effect of increasing concentration on viable/dead cells ([3]; histones 400 μg/mL, increasing concentrations of mCBS): an increase in viable cells (Calcein-AM uptake) and a reduction in dead cells (PI uptake) | HMECs reverted from PI uptake to PI exclusion and calcein-AM uptake ([3]; histones 400 μg/ml 60 min, then mCBS 100 μg/ml for 10 min): approximately 30% | protection from histone-mediated injury ([3]; mCBS 25 μg/mL + histones 400 μg/mL): reduced level of protection | dead cells (PI uptake) [3, 4]: 20% | viable cells (calcein-AM) [3, 4]: 74%
